Measured values: patent US20210214731A1, “METHODS FOR TREATING CANCER” (President and Fellows of Harvard College, priority 2019, published 2021)

How the values were obtained:
[1] = tested on: MLL-AF9 AML; assay: In vitro growth of MLL-AF9 AML; type: cell-based, mouse; settings: for effect of inhibitor on in vitro growth of MLL-AF9 with MCT4-KO: combined with MCT4-KO versus control gRNA (FIG. 6D)
Protocol: Retroviral transduction model of MLL-AF9 or HoxA9-Meis1 AML were generated by infecting normal mouse GMP (Lin^−Kit^+Sca-1^−CD34^+CD16/32^+) (FASC antibodies summarized in Supplemental Table 4) by MSCV constructs. Infected cells were injected into normal C57BL/6J. Leukemic BM was harvested and expanded ex vivo in RPMI-1640 media supplemented with 10% FBS, 1% P/S, recombinant IL-3 (10 ng/ml) and SCF (100 ng/ml).

[2] = tested on: MLL-AF9 AML; assay: Glycolysis and Mito stress analysis (Seahorse ECAR/OCR); type: cell-based, mouse; settings: MLL-AF9 AML in vitro, LDHA inhibition (FIG. 6A)
Protocol: Glycolysis stress and Mito stress of normal Lin^− BM cells and AML were examined by Seahorse XF analyzer (Agilent) according to the manufacturers' protocol. In brief, the suspension cells were seeded onto a Cell-Tak (Corning) coated Seahorse XF Microplate in Seahorse XF Base Medium with appropriate supplement (Glycolysis Stress test: 1 mM glutamine; Mito stress test: 1 mM pyruvate, 2 mM glutamine and 10 mM glucose) and centrifuged at 200×g for 5 mins Different compounds were injected for the ECAR and OCR profiling (Glycolysis Stress test: 10 mM glucose, 1 μM Oligomycin and 50 mM 2DG; Mito Stress test: 1 μM Oligomycin, 0.5 μM FCCP and 0.5 μM Antimycin A). The data was eventually analyzed by Seahorse Wave Desktop 2.6 (Agilent).

[3] = tested on: MCT4 expression in MLL-AF9 AML; assay: MCT4 mRNA (Q-PCR) and protein (Western blot) expression in MLL-AF9 AML upon inhibitor treatment; type: cell-based, mouse; settings: MLL-AF9 AML in vitro (FIG. 9G)
Protocol: Cells were lyzed in 1×RIPA lysis buffer (Cell Signaling) with protease and phosphatase inhibitors. Cell lysate was centrifuged at 13000 rpm for 10 mins. Supernatant was collected and denatured in SDS-loading buffer with boiling for 10 mins. Cell lysates were separated, transferred and blotted with primary and horseradish peroxidase (HRP)-conjugated secondary antibodies (Supplemental Table 4). Hybridization signals were visualized with Amersham ECL Western blot detection reagents (GE Healthcare Amersham) or Luminata Forte Western HRP substrate (EMD Millipore) and captured by Hyperfilm™ ECL (GE Healthcare Amersham). Densitometric analysis of the bands was performed by ImageJ 1.8.0v.
(§1) Cell was washed twice with PBS and subjected to RNA purification using RNeasy Plus Mini Kit (Qiagen) according to the manufacturers' protocol. Extracted total RNA was then subjected to reverse transcription using SuperScript IV VILO Master Mix (Thermo Fisher Scientific) according to the manufacturers' protocol. Synthesized cDNA was then used for the Q-PCR using gene-specific primers (Supplemental Table 3) and SYBR™ Green PCR Master Mix. The reaction was run and analyzed by StepOnePlus Real-Time PCR System.

[4] = tested on: MCT4 promoter in MLL-AF9 AML; assay: ChIP-PCR of enrichment on MCT4 promoter in MLL-AF9 AML; type: cell-based, mouse
Protocol: ChIP assays were performed in hematopoietic cells as previously described (Kim et al., 2008) using Pierce™ Protein G Agarose (Thermo Fisher Scientific). In brief, the cell suspension was fixed with 1% formaldehyde for 7 mins then neutralized by glycine. The fixed cell was washed with cold PBS. The cell pellet was then sonicated in SDS ChIP buffer. The supernatant was collected and pre-cleared with protein G agarose. After pre-clearing, a ChIP reaction using different antibodies (1:100, summarized in Supplemental Table 4) was added to the lysate and incubated at 4° C. overnight Immunoprecipitated complexes were successively washed with buffers and then eluted using SDS elution buffer at 65° C. overnight to reverse crosslink protein-DNA complex. The samples were treated with RNase A and Proteinase K, then extracted by phenol-chloroform isoamyl alcohol and precipitated. Finally, the pellet was resuspended in 20 μl TE buffer.
The DNA was then subjected to Q-PCR analysis using specific primers (Supplemental Table 3) and SYBR™ Green PCR Master Mix (Thermo Fisher Scientific). Input genomic DNA was used for the reference sample. The reaction was run and analyzed by StepOnePlus Real-Time PCR System (Thermo Fisher Scientific). Mouse or human Gfi1b was included as a negative control.

[5] = tested on: MCT4 expression in THP-1; assay: Q-PCR of MCT4 mRNA expression in THP-1; type: cell-based, human; settings: THP-1 (FIG. 10G)
Description: (§2) Human AML cell lines (K562, KG1, ML2, Kasumi-1, MOLM-13, MOLM-14, MV4-11, THP-1, MONO-MACE, HL-60, NB4, U937 and NOMO-1) were purchased from the American Type Culture Collection (ATCC) and cultured in RPMI-1640 media supplemented with 10% FBS and 1% penicillin/streptomycin (P/S).
as §1

[6] = tested on: MCT4 expression in NOMO-1; assay: Q-PCR of MCT4 mRNA expression in NOMO-1; type: cell-based, human; settings: NOMO-1 (FIG. 10G)
Description: as §2, §1

[7] = tested on: THP-1; assay: In vitro growth of THP-1; type: cell-based, human; settings: THP-1 (FIG. 10H)
Description: as §2

[8] = tested on: NOMO-1; assay: In vitro growth of NOMO-1; type: cell-based, human; settings: NOMO-1 (FIG. 10H)
Description: as §2

Question: Which “effect of inhibitor on in vitro growth of MLL-AF9 with MCT4-KO” value [1] does the source give for NC(=O)c1ccc(N)nc1 [6AN, 6-aminonicotinamide] here?
Answer: increased the effect

Question: How did the “effect of inhibitor on in vitro growth of MLL-AF9 with MCT4-KO” value [1] turn out when O=CC[C@@H](O)[C@H](O)[C@H](O)CO [2DG, 2-deoxyglucose] was run?
Answer: increased the effect

Question: CCCc1c(O)c(O)c(C(=O)O)c2cc(Cc3ccccc3)c(C)cc12 [FX11] was tested. Which “extracellular acidification rate (ECAR)” value [2] did it give?
Answer: decreased

Question: What about the “oxygen consumption rate (OCR)” value [2] of the same molecule?
Answer: increased

Question: What does the source list for Cc1sc2c(c1C)C(c1ccc(Cl)cc1)=N[C@@H](CC(=O)OC(C)(C)C)c1nnc(C)n1-2 [JQ-1]?
Answer: growth of MLL-AF9 AML ([1]; JQ-1 treatment (FIG. 9H)): reduced the growth of MLL-AF9 AML in dose dependent manner; MCT4 expression [3]: suppressed; BRD4 enrichment on the MCT4 promoter ([4]; mouse MLL-AF9 AML (FIG. 9I)): reduced; H3K27ac enrichment on the MCT4 promoter ([4]; mouse MLL-AF9 AML (FIG. 9J)): reduced; expression of MCT4 [5]: suppressed; expression of MCT4 [6]: suppressed; growth [7]: suppressed; growth [8]: suppressed

Question: How did the MCT4 expression [3] turn out when CC(C)N(C[C@H]1O[C@@H](n2cnc3c(N)ncnc32)[C@H](O)[C@@H]1O)[C@H]1C[C@@H](CCc2nc3cc(C(C)(C)C)ccc3[nH]2)C1 [EPZ-5676] was run?
Answer: not seen
